The values that follow are results of earlier work, collected in patent US20100092556A1, “ALFUZOSIN FORMULATIONS, METHODS OF MAKING, AND METHODS OF USE” (priority 2006, published 2010).

Structures can show the parent of a compound that is named as a salt.

For series [1] the following is noted: oral administration.

Take `COc1cc2nc(N(C)CCCNC(=O)C3CCCO3)nc(N)c2cc1OC` (racemic) [alfuzosin, (R,S)—N-[3-[(4-amino-6,7-dimethoxy-2-quinazolinyl)methylamino]propyl]tetrahydro-2-furancarboxamide]: the “administered dose excreted unchanged in the urine” value in series [1] was 11%.

For the compound `COc1cc2nc(N(C)CCCNC(=O)C3CCCO3)nc(N)c2cc1OC` (racemic) [Alfuzosin hydrochloride, (R,S)—N-[3-[(4-amino-6,7-dimethoxy-2-quinazolinyl)methylamino]propyl]tetrahydro-2-furancarboxamide hydrochloride], the solubility in alcohol result is reported as “sparingly soluble”, the solubility in dichloromethane entry was “practically insoluble” and the solubility in water result was “freely soluble”.
